{"source": "patent US12233070B2", "about": "“Methods for treating benzodiazepine misuse/use disorder” (University of M[…] Center, priority 2020, dated 2025)", "key": {"[1]": {"target": "α3 subunit-containing GABAA receptors (Homo sapiens, UniProt P18507+P34903)", "sequence (P34903 29-492)": "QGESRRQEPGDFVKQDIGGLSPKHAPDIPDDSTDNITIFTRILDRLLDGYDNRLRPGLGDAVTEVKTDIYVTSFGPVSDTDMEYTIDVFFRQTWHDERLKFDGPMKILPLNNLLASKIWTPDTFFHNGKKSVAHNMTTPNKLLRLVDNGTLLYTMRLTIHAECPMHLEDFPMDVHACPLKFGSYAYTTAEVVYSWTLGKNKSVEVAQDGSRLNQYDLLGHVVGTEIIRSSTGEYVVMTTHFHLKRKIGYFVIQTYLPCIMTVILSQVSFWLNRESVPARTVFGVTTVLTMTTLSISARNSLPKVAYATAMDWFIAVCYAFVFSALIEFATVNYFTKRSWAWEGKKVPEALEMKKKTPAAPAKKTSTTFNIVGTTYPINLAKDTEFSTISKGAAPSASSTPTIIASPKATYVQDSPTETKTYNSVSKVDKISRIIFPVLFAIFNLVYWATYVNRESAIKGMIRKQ", "sequence (P18507 40-475)": "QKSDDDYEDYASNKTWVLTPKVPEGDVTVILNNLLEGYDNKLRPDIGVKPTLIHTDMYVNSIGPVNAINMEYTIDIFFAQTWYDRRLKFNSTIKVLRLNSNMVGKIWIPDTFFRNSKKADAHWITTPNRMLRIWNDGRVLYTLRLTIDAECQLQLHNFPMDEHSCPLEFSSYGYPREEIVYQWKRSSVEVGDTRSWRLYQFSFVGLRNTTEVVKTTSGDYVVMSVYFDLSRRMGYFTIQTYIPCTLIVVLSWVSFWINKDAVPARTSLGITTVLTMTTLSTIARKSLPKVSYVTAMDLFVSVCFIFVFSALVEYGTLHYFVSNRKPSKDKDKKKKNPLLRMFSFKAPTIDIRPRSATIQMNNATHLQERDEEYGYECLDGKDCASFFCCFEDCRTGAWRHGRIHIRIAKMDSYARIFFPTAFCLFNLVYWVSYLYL", "sequence (P28472 26-473 partner)": "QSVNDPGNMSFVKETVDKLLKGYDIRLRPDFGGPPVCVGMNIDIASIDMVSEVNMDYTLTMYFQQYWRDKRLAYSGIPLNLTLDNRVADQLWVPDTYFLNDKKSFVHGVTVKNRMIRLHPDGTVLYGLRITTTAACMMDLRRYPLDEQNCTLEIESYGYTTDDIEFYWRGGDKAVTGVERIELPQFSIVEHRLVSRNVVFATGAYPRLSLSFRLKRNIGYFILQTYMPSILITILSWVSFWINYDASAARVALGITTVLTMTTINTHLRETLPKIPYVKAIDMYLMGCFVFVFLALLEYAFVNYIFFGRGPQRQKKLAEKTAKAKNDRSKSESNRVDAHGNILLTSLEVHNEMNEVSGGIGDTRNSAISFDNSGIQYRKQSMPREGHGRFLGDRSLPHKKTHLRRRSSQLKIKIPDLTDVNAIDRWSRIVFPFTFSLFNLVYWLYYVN", "set-up": "key: act as partial positive modulators for particular subtype combinations; none: zero efficacy (i.e., antagonism) at other subtypes", "details": "cited from earlier work"}, "[2]": {"set-up": "key to Pharmacokinetics: “poor” - low bioavailability and/or short half-life; “good” - potent with long half-life", "details": "in vivo; cited from earlier work"}, "[3]": {"target": "α1 subunit-containing GABAA receptors (Homo sapiens, UniProt P14867+P18507)", "sequence (P14867 28-456)": "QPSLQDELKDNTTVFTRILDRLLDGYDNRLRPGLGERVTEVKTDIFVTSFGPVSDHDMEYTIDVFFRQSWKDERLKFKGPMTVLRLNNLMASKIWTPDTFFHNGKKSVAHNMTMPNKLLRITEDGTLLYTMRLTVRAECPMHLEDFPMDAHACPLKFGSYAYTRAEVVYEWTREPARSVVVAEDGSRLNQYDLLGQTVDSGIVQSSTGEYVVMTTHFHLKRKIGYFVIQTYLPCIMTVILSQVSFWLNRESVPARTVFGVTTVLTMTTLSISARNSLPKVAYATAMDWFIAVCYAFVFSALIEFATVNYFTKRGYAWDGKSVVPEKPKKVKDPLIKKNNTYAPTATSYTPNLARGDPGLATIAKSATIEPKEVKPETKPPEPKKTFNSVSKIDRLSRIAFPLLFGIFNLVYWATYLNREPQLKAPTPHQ", "sequence (P18507 40-475)": "as the sequence (P18507 40-475) above", "sequence (P28472 26-473 partner)": "as the sequence (P28472 26-473 partner) above", "set-up": "key to Subtype α1: act as partial positive modulators for particular subtype combinations; none: zero efficacy (i.e., antagonism) at other subtypes", "details": "cited from earlier work"}, "[4]": {"target": "α5 subunit-containing GABAA receptors (Homo sapiens, UniProt P18507+P31644)", "sequence (P31644 32-462)": "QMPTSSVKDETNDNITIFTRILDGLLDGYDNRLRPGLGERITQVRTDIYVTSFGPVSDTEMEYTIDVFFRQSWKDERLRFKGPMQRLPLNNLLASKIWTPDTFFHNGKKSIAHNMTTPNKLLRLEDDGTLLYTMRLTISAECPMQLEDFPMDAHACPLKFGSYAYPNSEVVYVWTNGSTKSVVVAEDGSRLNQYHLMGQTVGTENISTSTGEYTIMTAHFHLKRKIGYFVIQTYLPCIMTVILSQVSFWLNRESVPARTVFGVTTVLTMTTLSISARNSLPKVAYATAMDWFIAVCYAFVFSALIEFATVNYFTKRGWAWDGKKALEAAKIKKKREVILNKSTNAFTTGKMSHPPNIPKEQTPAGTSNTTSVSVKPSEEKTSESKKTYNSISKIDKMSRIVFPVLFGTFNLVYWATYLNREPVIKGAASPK", "sequence (P18507 40-475)": "as the sequence (P18507 40-475) above", "sequence (P28472 26-473 partner)": "as the sequence (P28472 26-473 partner) above", "set-up": "key to Subtype α5: act as partial positive modulators for particular subtype combinations; none: zero efficacy (i.e., antagonism) at other subtypes", "details": "cited from earlier work"}, "[5]": {"target": "α2 subunit-containing GABAA receptors (Homo sapiens, UniProt P18507+P47869)", "sequence (P47869 29-451)": "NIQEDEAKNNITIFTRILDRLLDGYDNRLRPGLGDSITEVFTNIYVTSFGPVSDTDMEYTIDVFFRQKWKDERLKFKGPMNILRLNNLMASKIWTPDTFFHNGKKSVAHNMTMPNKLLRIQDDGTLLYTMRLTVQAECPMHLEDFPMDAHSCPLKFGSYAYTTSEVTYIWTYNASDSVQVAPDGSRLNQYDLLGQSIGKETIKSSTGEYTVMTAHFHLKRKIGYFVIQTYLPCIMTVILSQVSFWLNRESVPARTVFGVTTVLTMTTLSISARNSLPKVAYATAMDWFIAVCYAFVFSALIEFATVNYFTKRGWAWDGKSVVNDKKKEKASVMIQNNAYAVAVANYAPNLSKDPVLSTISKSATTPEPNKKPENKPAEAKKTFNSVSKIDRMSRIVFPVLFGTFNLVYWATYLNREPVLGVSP", "sequence (P18507 40-475)": "as the sequence (P18507 40-475) above", "sequence (P28472 26-473 partner)": "as the sequence (P28472 26-473 partner) above", "set-up": "key: act as partial positive modulators for particular subtype combinations; none: zero efficacy (i.e., antagonism) at other subtypes", "details": "cited from earlier work"}, "[6]": {"tested_on": "rats", "experiment": "Blockade of diazepam suppression of responding (30 min pretreatment)", "type": "in vivo, rat", "details": "ligand 3.0 mg/kg; diazepam 30 min pretreatment; FIG. 12A; N=5", "experimental": "This profile is very similar to that of TPA023B despite the structural differences. […] For both compounds, we chose 3.0 mg/kg, i.p., in rats based on published literature or pilot studies in our laboratories.\nFIGS. 12A and 12B illustrate the results of acute dependency testing using these compounds."}, "[7]": {"tested_on": "Sprague-Dawley rats", "experiment": "Precipitated withdrawal/acute dependence: responding 60 min after diazepam bolus", "type": "in vivo, rat", "experimental": "Acute dependence can occur after single exposures to the benzodiazepine chlordiazepoxide, but not to an α2/3GABAA selective ligand (Fischer et al. 2013, Psychopharmacology 227: 347-54). Here, the extent to which TPA023B can precipitate withdrawal in rats following a single, large bolus dose of diazepam was studied. […] Once rates of responding were stable, doses of diazepam, the non-selective benzodiazepine antagonist flumazenil, and TPA023B were administered prior to the session."}, "[8]": {"tested_on": "rhesus monkeys", "experiment": "Midazolam self-administration (PR) after TPA023B pretreatment", "type": "in vivo, rhesus monkey", "details": "midazolam alone, PR procedure", "experimental": "To test this, we have trained monkeys to self-administer the short-acting conventional benzodiazepine midazolam (0.056 mg/kg/injection, i.v.) in the PR procedure, as described above. During test sessions, we initially kept the training dose of midazolam constant, and administered i.v. pretreatments of TPA023B (0.003, 0.01, 0.03, 0.1, 0.3 mg/kg, of vehicle) immediately prior to the beginning of the session. A key consideration for any pharmacotherapy, as well as interpretation of blockade of reinforcing effects generally, is the extent to which the blockade is specific to the drug target and not a generalized suppression of behavior, e.g., due to sedative-motor effects inhibiting the ability of the monkey to press the lever. Another possible confounding factor that would potentially result in blockade of drug taking is general sickness or perceptual alterations. In particular, appetite suppression would represent an undesirable side effect in a benzodiazepine addiction pharmacotherapy.\nTo further evaluate the extent to which attenuation of responding was due to pharmacological antagonism and to evaluate an exemplary range of effective doses, we evaluated single doses of TPA023B administered prior to sessions in which differing doses of midazolam were tested."}, "[9]": {"tested_on": "rhesus monkeys", "experiment": "Conflict model of anxiolysis (mult FR, FR+PUN)", "type": "in vivo, rhesus monkey", "details": "i.v.; for Non-Suppressed, Mean responses/s (SEM) / Suppressed, Mean responses/s (SEM): N = 4 monkeys", "description": "The conflict procedure methodology includes a two-component multiple fixed-ratio, fixed-ratio plus punishment schedule (mult FR, FR+PUN). An important feature of this model is that it is highly predictive of clinically active doses in human subjects (Rowlett et al. 2006, Psychopharmacology 184: 201-11). One component of this schedule was associated with a distinctive visual stimulus (e.g., red light) and the other component was associated with a different stimulus (e.g., green light). In each component, completion of 10 responses (FR 10) produced a food pellet followed by a brief (10 sec) timeout period. The component ended following delivery of 5 food pellets or 5 min, whichever occurred first. A 10-min timeout period occurred before each of four cycles with two components (1 red, 1 green) per cycle. When performance in both components of the multiple schedule was stable, responding in one component was suppressed by superimposing a FR schedule of response-produced electric shock. Under the superimposed schedule, every nth response (n=15-25, adjusted for each monkey depending on individual performance) produced shock. Once responding was stable (at least three sessions in which suppressed responding was less than 50% of non-suppressed responding, with no upward or downward trend in response rates in either component), investigational compounds were administered i.v. during the extended timeout periods using a cumulative dosing technique. This technique allowed determination of a four-point dose-response function in a single session.\nTable 2 summarizes data for TPA023B in the conflict procedure (n=4 monkeys, 2 females and 2 males), with alprazolam as a positive control. Average responses when vehicle was administered was 2.2 in the non-suppressed component, decreased by ˜98% by shock presentation in the suppressed component (mean=0.05 responses). For non-suppressed responding, TPA023B had no effects on mean rates of responding or percent of control over a 100-fold dose range (0.01 to 1.0 mg/kg, i.v.). […] This effect was similar to that observed with 0.03 mg/kg, i.v., of alprazolam. A striking characteristic of TPA023B in this procedure is the lack of attenuation of rates of responding at higher doses."}, "[10]": {"tested_on": "Sprague-Dawley rats", "experiment": "Pulmonary ventilation, whole body plethysmography", "type": "in vivo, rat", "details": "3.0 mg/kg, i.p.; N=8 rats", "experimental": "We first assessed the effects of TPA023B, in comparison with alprazolam, using whole body plethysmography (WBP; DSI systems). For these studies, adult male Sprague-Dawley rats (n=8) were habituated to the chambers for 30 min. The chamber was then filled with 21% oxygen, sealed, and pressure fluctuation measured for 1 min. Next, the chamber was opened and the rats were injected with alprazolam or TPA023B, i.p., and placed into the sealed chamber for a 15 min pretreatment time. The chamber was again filled with 21% oxygen, and for 1 min, fluctuating pressure amounts were recorded to obtain tidal volume (lung capacity), breaths/minute, and minute volume (lung capacity per unit time)."}, "[11]": {"tested_on": "rhesus monkeys", "experiment": "Observation/sedation, focal animal behavioral scoring", "type": "in vivo, rhesus monkey", "details": "at least one dose significantly different from vehicle; out of 22 behaviors; i.v.; N = 4 monkeys", "experimental": "For the data shown here, the behavior of each monkey (n=4 total) was scored using a focal animal approach as described previously (Duke et al. 2018, J Pharmacol Exp Ther 366: 145-57). Briefly, a trained observer blind to the drug treatments observed a specific monkey for 5 min and recorded each instance that a particular behavior occurred during 15-s intervals. Scores for each behavior were calculated as the number of 15-s bins in which the behavior occurred (e.g., a maximum score would be 20). For sedation measures, structured exposure to stimuli were included in the observation sessions (Duke et al., 2018). […] Specifically, the observer presented three stimuli: 1) walked at a normal pace towards the cage, 2) spoke the animal's name, and 3) moved the lock used to secure the door of the cage. […] If the monkey attended more slowly (i.e., >3 s following stimuli), the observer scored “moderate sedation”.\nThe assessment of sedation was initiated during the 5-min sampling period if the animal presented, at any time during that period, with its eyes closed for longer than 3 s. The result of this assessment was recorded for each remaining 15-sec interval of the 60-sec epoch unless eyes opened. Afterwards, eyes closing again initiated the assessment. If eyes remained closed, then the assessment was repeated at the beginning of the next 60-sec epoch 15-sec interval. Therefore, the maximum score for sedation during a 5-min period was 20 (four possible scores for 4×15-sec intervals per min, 5 min total; i.e., 4 possible scores×5 min=20). The order in which animals were observed and the observer performing the scoring each day was randomized. Four observers participated in the scoring throughout the duration of the study; each observer underwent a minimum of 20 hours of training and met an inter-observer reliability criterion of ≥90% agreement with all other observers.\nThe five-min sampling periods were repeated at multiple times following i.v. injection of TPA023B or vehicle (minutes post injection): 5, 10, 20, 40, 80, 160, 320. Scores were cumulated across the time periods, resulting in a maximum possible cumulative score of 140. TPA023B was compared with alprazolam, and the results have been published by Duke et al. (2018)."}, "[12]": {"tested_on": "Sprague-Dawley rats", "experiment": "Food-maintained responding (FR 10), ligand alone", "details": "for effect on rates of responding: diazepam 3.0 mg/kg"}, "[13]": {"details": "rhesus monkey; cited from earlier work"}}, "note": "“Also recorded” adds a separate entry of the source. Marks after values point to notes of the source that are not given here."}
{"molecule": "Cn1ncnc1COc1nn2c(-c3ccccc3F)nnc2cc1C1CCC1", "note": "[MRK-696]", "values": [{"measurement": "Subtype α3", "setting": "[1]", "result": "partial"}, {"measurement": "Pharmacokinetics", "setting": "[2]", "result": "poor"}, {"measurement": "Subtype α1", "setting": "[3]", "result": "partial"}, {"measurement": "Subtype α5", "setting": "[4]", "result": "partial"}, {"measurement": "Subtype α2", "setting": "[5]", "result": "partial"}]}
{"molecule": "Cn1ncnc1COc1nn2c(-c3cc(F)ccc3F)nnc2cc1C(C)(C)C", "note": "[L-838,417]", "values": [{"measurement": "Subtype α3", "setting": "[1]", "result": "partial"}, {"measurement": "PK", "setting": "[2]", "result": "Poor"}, {"measurement": "Pharmacokinetics", "setting": "[2]", "result": "poor"}, {"measurement": "Subtype α1", "setting": "[3]", "result": "none"}, {"measurement": "efficacy at α1GABAA subtype", "setting": "[3]", "result": "antagonist; also recorded: no efficacy"}, {"measurement": "Subtype α5", "setting": "[4]", "result": "partial"}, {"measurement": "Subtype α2", "setting": "[5]", "result": "partial"}, {"measurement": "ability of diazepam to suppress rates of responding", "setting": "[6]", "result": "blocked"}]}
{"molecule": "Cn1ncnc1COc1nn2c(-c3ccccc3)nnc2cc1C1CCC1", "note": "[MRK-067]", "values": [{"measurement": "PK", "setting": "[2]", "result": "poor"}]}
{"molecule": "CCOC(=O)c1ncn2c1CN(C)C(=O)c1cc(F)ccc1-2", "note": "[flumazenil, reference compound]", "values": [{"measurement": "rates of responding 60 min after 3.0 mg/kg diazepam (precipitated withdrawal)", "setting": "[7]; all doses tested, vs ligand alone, FIGS. 11A and 11B", "result": "robustly suppressed responding"}, {"measurement": "rates of responding after 60-min pretreatment of diazepam (acute dependence)", "setting": "[7]; ligand 3.0 mg/kg, FIG. 12B, N=5", "result": "significant decrease"}, {"measurement": "ability of diazepam to suppress rates of responding", "setting": "[6]", "result": "blocked"}]}
{"molecule": "Cc1ncc2n1-c1ccc(Cl)cc1C(c1ccccc1F)=NC2", "note": "[midazolam, reference compound]", "values": [{"measurement": "dose showing maximal self-administration", "setting": "[8]", "result": 0.018, "unit": "mg/kg/injection"}]}
{"molecule": "Cc1nnc2n1-c1ccc(Cl)cc1C(c1ccccc1)=NC2", "note": "[Alprazolam, alprazolam]", "values": [{"measurement": "Non-Suppressed, Mean responses/s (SEM)", "setting": "[9]; 0.03 mg/kg", "result": "1.8 (0.31) responses/s"}, {"measurement": "Suppressed, Mean responses/s (SEM)", "setting": "[9]; 0.03 mg/kg", "result": "1.9 (0.10)* responses/s"}, {"measurement": "effect on non-suppressed responding", "setting": "[9]; 0.3 mg/kg", "result": "markedly attenuated"}, {"measurement": "Non-Suppressed, Mean responses/s (SEM)", "setting": "[9]; 0.3 mg/kg", "result": "0.18 (0.09)* responses/s"}, {"measurement": "Suppressed, Mean responses/s (SEM)", "setting": "[9]; 0.3 mg/kg", "result": "0.10 (0.10) responses/s"}, {"measurement": "breathing frequency", "setting": "[10]", "result": "significantly reduced"}, {"measurement": "minute volume", "setting": "[10]", "result": "significantly reduced"}, {"measurement": "Significant behavioral effects: Decrease", "setting": "[11]", "result": "Exploration; also recorded: Passive Visual, Tactile/Oral"}, {"measurement": "Significant behavioral effects: Increase", "setting": "[11]", "result": "Sedation, Deep Sedation,; also recorded: Observable Ataxia; also recorded: Rest/Sleep Posture, Moderate"}]}
{"molecule": "MRK-409", "values": [{"measurement": "Subtype α3", "setting": "[1]", "result": "partial"}, {"measurement": "Pharmacokinetics", "setting": "[2]", "result": "good"}, {"measurement": "Subtype α1", "setting": "[3]", "result": "partial"}, {"measurement": "Subtype α5", "setting": "[4]", "result": "partial"}, {"measurement": "Subtype α2", "setting": "[5]", "result": "partial"}]}
{"molecule": "CN1C(=O)CN=C(c2ccccc2)c2cc(Cl)ccc21", "note": "[diazepam]", "values": [{"measurement": "mean rates of responding (percent of baseline control), ligand alone", "setting": "[12]; N=8 rats, FIGS. 10A to 10C", "result": "significantly decreased"}, {"measurement": "effect on rates of responding", "setting": "[12]; 30 min pre-treatment", "result": "most robust effects"}, {"measurement": "effect on rates of responding", "setting": "[12]; 60 min pre-treatment", "result": "no effects"}]}
{"molecule": "N#Cc1cc(F)ccc1-c1cc(-c2cnc3nc(C(F)(F)F)ccn23)ccc1F", "note": "[MRK-898]", "values": [{"measurement": "Subtype α3", "setting": "[1]", "result": "partial"}, {"measurement": "Pharmacokinetics", "setting": "[2]", "result": "good"}, {"measurement": "Subtype α1", "setting": "[3]", "result": "none"}, {"measurement": "efficacy at α1GABAA subtype", "setting": "[3]", "result": "antagonist"}, {"measurement": "Subtype α5", "setting": "[4]", "result": "none"}, {"measurement": "efficacy at α5GABAA subtype", "setting": "[4]", "result": "antagonist"}, {"measurement": "bioavailability", "setting": "[13]", "result": 49, "unit": "%"}, {"measurement": "half-life", "setting": "[13]", "result": 13, "unit": "h"}, {"measurement": "Subtype α2", "setting": "[5]", "result": "partial"}]}
